PMC6414448, “Acaricidal Mechanism of Scopoletin Against Tetranychus cinnabarinus” (Frontiers in Physiology, 2019)

Target: T1, TcGPCR (G-protein-coupled neuropeptide receptor) (Tetranychus cinnabarinus, UniProt A0A2L1GE98)
T1 construct: full ORF in pcDNA3.1(+), transient expression in CHO-WTA11 cells with aequorin and Galpha16; seven TM helices, rhodopsin-like; T. urticae orthologue locus tetur02g03830
T1 sequence (A0A2L1GE98 1-513): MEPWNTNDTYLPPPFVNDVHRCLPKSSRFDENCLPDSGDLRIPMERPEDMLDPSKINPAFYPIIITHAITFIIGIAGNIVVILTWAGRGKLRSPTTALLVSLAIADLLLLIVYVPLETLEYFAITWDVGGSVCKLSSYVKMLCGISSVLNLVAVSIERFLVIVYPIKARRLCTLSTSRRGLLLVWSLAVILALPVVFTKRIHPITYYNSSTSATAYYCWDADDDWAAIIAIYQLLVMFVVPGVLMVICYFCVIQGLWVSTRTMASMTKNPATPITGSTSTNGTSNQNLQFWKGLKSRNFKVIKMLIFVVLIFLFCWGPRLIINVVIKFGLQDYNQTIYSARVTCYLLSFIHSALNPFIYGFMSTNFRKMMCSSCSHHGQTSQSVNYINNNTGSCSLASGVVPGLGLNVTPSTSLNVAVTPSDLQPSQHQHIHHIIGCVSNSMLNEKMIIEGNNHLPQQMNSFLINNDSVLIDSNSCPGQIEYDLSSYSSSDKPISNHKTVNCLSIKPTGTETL
Assay: aequorin luminescence calcium mobilization in transfected CHO-WTA11 cells
Type: cell-based
From the text: aequorin luminescence calcium mobilization in transfected CHO-WTA11 cells on TcGPCR (G-protein-coupled neuropeptide receptor) | CHO cells expressing TcGPCR was induced by scopoletin in a concentration-dependent manner

Q: How did the EC50 turn out when `COc1cc2ccc(=O)oc2cc1O` [scopoletin] was run?
A: 0.28 µM
